Starred links: 1 amine or outer side, 2 acyl side, 3 side chain; linkers in the order of their positions; H or OH if unused. Positions of bridges follow the written chain, without caps; N, C: chain ends. Residues, ends and D or L forms follow the SMILES beside them. *: point of attachment. C18 diacid = O=C(O)CCCCCCCCCCCCCCCCC(=O)*; γGlu = O=C(O)[C@H](CCC(=O)[*:2])N[*:1]; AEEA = NCCOCCOCC(=O)O
Assays:
[1] = PK of CNP compounds after i.v. and s.c. administration to rats; conditions: male, Sprague Dawley, in vivo, iv, rat, i.v., about 100 nmol/kg; for clearance: read-out: Cl (L/hr/kg), i.v. administration (converted); for half-life: read-out: T½ (hr), i.v. administration (converted)
How it was run: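 Male Sprague Dawley rats (n=4-6) were dosed at 300 nmol/kg s.c. or 100 nmol/kg i.v., formulated at pH 7.4 or 4.0, and sampled up to 72 h. Plasma levels were measured by TF-LC-MS against calibrators from 0.5 to 2000 nM. Non-compartmental PK used dose-normalized AUC for bioavailability, with values given as means.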

[2] = High-Molecular-Weight-Protein (HMWP) formation by SEC-UPLC; assay type: physicochemical; conditions: increase over two weeks at 37° C.
How it was run: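 Formulations at pH 4.0 or 6.5 incubated quiescently for two weeks at 37 °C; HMWP (peaks eluting before monomer, % of total peptide area) measured by SEC-UPLC, pH 2.4 mobile phase with 50% isopropanol, 50 °C, UV 215 nm. Value is HMWP increase, normalized to two weeks if needed.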

| Compound | clearance [1] | half-life [1] | 2-Week HMWP formation at pH 4.0 (%), % relative to total peak area [2] | 2-Week HMWP formation at pH 6.5 (%), % relative to total peak area [2] |
| --- | --- | --- | --- | --- |
| CC[C@H](C)[C@@H]1NC(=O)[C@H](CCCNC(=N)N)NC(=O)[C@H](CC(=O)O)NC(=O)[C@H](CC(C)C)NC(=O)[C@@H]2CCCN2C(=O)[C@H](CC(C)C)NC(=O)CNC(=O)[C@H](Cc2ccccc2)NC(=O)[C@@H](NC(=O)CNC(=O)[C@H](CO)NC(=O)[C@H](CO)NC(=O)[C@@H](NC(=O)CNC(=O)[C@@H](NC(=O)[C@H](Cc2c[nH]cn2)NC(=O)[C@H](CCC(N)=O)NC(=O)[C@H](C)NC(=O)CNC(=O)[C@H](Cc2c[nH]cn2)NC(=O)[C@H](Cc2ccc(O)cc2)NC(=O)[C@H](CCCCN)NC(=O)[C@H](CCCNC(=N)N)NC(=O)[C@H](C)NC(=O)COCCOCCNC(=O)COCCOCCNC(=O)CC[C@H](NC(=O)CCCCCCCCCCCCCCCCC(=O)O)C(=O)O)[C@@H](C)O)C(C)C)CSSC[C@@H](C(=O)O)NC(=O)CNC(=O)[C@H](CC(C)C)NC(=O)CNC(=O)[C@H](CO)NC(=O)[C@H](CC(C)C)NC(=O)[C@H](CO)NC(=O)CNC1=O [compound 1351] ({C18 diacid-γGlu-AEEA-AEEA}-ARKYHGAQHTGVSSGCFGLPLDRIGSLSGLGC-OH; disulfide 16-32) | 0.0093 L/h/kg | 6.07 h | 1.94% |  |
| CC[C@H](C)[C@@H]1NC(=O)[C@H](CCCNC(=N)N)NC(=O)[C@H](CC(=O)O)NC(=O)[C@H](CC(C)C)NC(=O)[C@@H]2CCCN2C(=O)[C@H](CC(C)C)NC(=O)CNC(=O)[C@H](Cc2ccccc2)NC(=O)[C@@H](NC(=O)CNC(=O)[C@H](CO)NC(=O)[C@H](CO)NC(=O)[C@@H](NC(=O)CNC(=O)[C@@H](NC(=O)[C@H](CCCCN)NC(=O)[C@H](CCC(N)=O)NC(=O)[C@H](C)NC(=O)CNC(=O)[C@H](Cc2c[nH]cn2)NC(=O)[C@H](Cc2ccc(O)cc2)NC(=O)COCCOCCNC(=O)COCCOCCNC(=O)COCCOCCNC(=O)CC[C@H](NC(=O)CCCCCCCCCCCCCCCCC(=O)O)C(=O)O)[C@@H](C)O)C(C)C)CSSC[C@@H](C(=O)O)NC(=O)CNC(=O)[C@H](CC(C)C)NC(=O)CNC(=O)[C@H](CO)NC(=O)[C@H](CC(C)C)NC(=O)[C@H](CO)NC(=O)CNC1=O [compound 1352] ({C18 diacid-γGlu-AEEA-AEEA-AEEA}-YHGAQKTGVSSGCFGLPLDRIGSLSGLGC-OH; disulfide 13-29) | 0.0102 L/h/kg | 6.34 h |  | 0.82% |
| CC[C@H](C)[C@@H]1NC(=O)[C@H](CCCNC(=N)N)NC(=O)[C@H](CC(=O)O)NC(=O)[C@H](CC(C)C)NC(=O)[C@@H]2CCCN2C(=O)[C@H](CC(C)C)NC(=O)CNC(=O)[C@H](Cc2ccccc2)NC(=O)[C@@H](NC(=O)CNC(=O)[C@H](CO)NC(=O)[C@H](CO)NC(=O)[C@H](CC(C)C)NC(=O)CNC(=O)[C@H](CCCCN)NC(=O)[C@H](CCCCN)NC(=O)[C@H](CCC(N)=O)NC(=O)[C@H](C)NC(=O)CNC(=O)[C@H](CCC(=O)O)NC(=O)[C@H](Cc2ccc(O)cc2)NC(=O)CNC(=O)CNC(=O)CNC(=O)COCCOCCNC(=O)COCCOCCNC(=O)CC[C@H](NC(=O)CCCCCCCCCCCCCCCCC(=O)O)C(=O)O)CSSC[C@@H](C(=O)O)NC(=O)CNC(=O)[C@H](CC(C)C)NC(=O)CNC(=O)[C@H](CO)NC(=O)[C@H](CC(C)C)NC(=O)[C@H](CO)NC(=O)CNC1=O [compound 1378] ({C18 diacid-γGlu-AEEA-AEEA}-GGGYEGAQKKGLSSGCFGLPLDRIGSLSGLGC-OH; disulfide 16-32) | 0.00926 L/h/kg | 5.29 h |  | 6.67% |
| CC[C@H](C)[C@@H]1NC(=O)[C@H](CCCNC(=N)N)NC(=O)[C@H](CC(=O)O)NC(=O)[C@H](CC(C)C)NC(=O)[C@@H]2CCCN2C(=O)[C@H](CC(C)C)NC(=O)CNC(=O)[C@H](Cc2ccccc2)NC(=O)[C@@H](NC(=O)CNC(=O)[C@H](CCC(N)=O)NC(=O)[C@H](CO)NC(=O)[C@H](CO)NC(=O)CNC(=O)[C@H](Cc2c[nH]cn2)NC(=O)[C@H](Cc2c[nH]cn2)NC(=O)[C@H](CCC(N)=O)NC(=O)[C@H](C)NC(=O)CNC(=O)[C@H](Cc2c[nH]cn2)NC(=O)[C@H](Cc2ccc(O)cc2)NC(=O)[C@H](CCCCN)NC(=O)[C@H](Cc2c[nH]cn2)NC(=O)[C@H](C)NC(=O)[C@H](CCC(N)=O)NC(=O)[C@@H]2CCCN2C(=O)[C@H](Cc2c[nH]cn2)NC(=O)[C@H](CCC(=O)O)NC(=O)[C@H](CCC(N)=O)NC(=O)COCCOCCNC(=O)COCCOCCNC(=O)CC[C@H](NC(=O)CCCCCCCCCCCCCCCCC(=O)O)C(=O)O)CSSC[C@@H](C(=O)O)NC(=O)CNC(=O)[C@H](CC(C)C)NC(=O)CNC(=O)[C@H](CO)NC(=O)[C@H](CC(C)C)NC(=O)[C@H](CO)NC(=O)CNC1=O [compound 1381] ({C18 diacid-γGlu-AEEA-AEEA}-QEHPQAHKYHGAQHHGSSQGCFGLPLDRIGSLSGLGC-OH; disulfide 21-37) | 0.00382 L/h/kg | 15.2 h | 0.84% |  |
| CC[C@H](C)[C@@H]1NC(=O)[C@H](CCCNC(=N)N)NC(=O)[C@H](CC(=O)O)NC(=O)[C@H](CC(C)C)NC(=O)[C@@H]2CCCN2C(=O)[C@H](CC(C)C)NC(=O)CNC(=O)[C@H](Cc2ccccc2)NC(=O)[C@@H](NC(=O)CNC(=O)[C@H](CO)NC(=O)[C@H](CO)NC(=O)[C@H](CC(C)C)NC(=O)CNC(=O)[C@H](CCCCN)NC(=O)[C@H](CCCCN)NC(=O)[C@H](CCC(N)=O)NC(=O)[C@H](C)NC(=O)CNC(=O)[C@H](CCCCN)NC(=O)[C@H](Cc2ccc(O)cc2)NC(=O)[C@H](CCCCN)NC(=O)[C@H](CCCNC(=N)N)NC(=O)[C@H](C)NC(=O)[C@H](CCC(N)=O)NC(=O)[C@@H]2CCCN2C(=O)[C@H](Cc2c[nH]cn2)NC(=O)[C@H](CCC(=O)O)NC(=O)[C@H](CCC(N)=O)NC(=O)CC[C@H](NC(=O)CC[C@H](NC(=O)CC[C@H](NC(=O)CC[C@H](NC(=O)CCCCCCCCCCCCCCCCC(=O)O)C(=O)O)C(=O)O)C(=O)O)C(=O)O)CSSC[C@@H](C(=O)O)NC(=O)CNC(=O)[C@H](CC(C)C)NC(=O)CNC(=O)[C@H](CO)NC(=O)[C@H](CC(C)C)NC(=O)[C@H](CO)NC(=O)CNC1=O [compound 1389] ({C18 diacid-γGlu-γGlu-γGlu-γGlu}-QEHPQARKYKGAQKKGLSSGCFGLPLDRIGSLSGLGC-OH; disulfide 21-37) | 0.00415 L/h/kg | 14.6 h | 1.43% |  |
| CC[C@H](C)[C@@H]1NC(=O)[C@H](CCCNC(=N)N)NC(=O)[C@H](CCC(=O)O)NC(=O)[C@H](CC(C)C)NC(=O)[C@@H]2CCCN2C(=O)[C@H](CC(C)C)NC(=O)CNC(=O)[C@H](Cc2ccccc2)NC(=O)[C@@H](NC(=O)CNC(=O)[C@H](CO)NC(=O)[C@H](CO)NC(=O)[C@H](CC(C)C)NC(=O)CNC(=O)[C@H](CCCCN)NC(=O)[C@H](CCCCN)NC(=O)[C@H](CCC(N)=O)NC(=O)[C@H](C)NC(=O)CNC(=O)[C@H](CCCCN)NC(=O)[C@H](Cc2ccc(O)cc2)NC(=O)[C@H](CCCCN)NC(=O)[C@H](CCCNC(=N)N)NC(=O)[C@H](C)NC(=O)[C@H](CCC(N)=O)NC(=O)[C@@H]2CCCN2C(=O)[C@H](Cc2c[nH]cn2)NC(=O)[C@H](CCC(=O)O)NC(=O)[C@H](CCC(N)=O)NC(=O)CC[C@H](NC(=O)CC[C@H](NC(=O)CC[C@H](NC(=O)CC[C@H](NC(=O)CCCCCCCCCCCCCCCCC(=O)O)C(=O)O)C(=O)O)C(=O)O)C(=O)O)CSSC[C@@H](C(=O)O)NC(=O)CNC(=O)[C@H](CC(C)C)NC(=O)CNC(=O)[C@H](CO)NC(=O)[C@H](CC(C)C)NC(=O)[C@H](CO)NC(=O)CNC1=O [compound 9483] ({C18 diacid-γGlu-γGlu-γGlu-γGlu}-QEHPQARKYKGAQKKGLSSGCFGLPLERIGSLSGLGC-OH; disulfide 21-37) |  |  | 3.0% |  |

Source: patent publication US20240209028A1, “CNP COMPOUNDS” (priority 2022, published 2024)
